From patent publication US7456197B2, “Pyridinium cationic lipids as gene transfer agents” (The Texas A&M University System, priority 2003, dated 2008) come the findings set out here.

Structures are written as SMILES.

A short description of this data set: Critical (phase transition) temperature Tc by differential scanning calorimetry. The conditions noted are these: for Tc (phase transition temperature): lipids 21 and 25, DSC, heating rate 5° C./minute; for Tc (critical temperature), Pure: pure lipid. The format is physicochemical. The procedure:
General. Melting points for the diols and the phase transition temperature Tc for the cationic lipids were determined by differential scanning calorimetry (DSC), using a TA-Instruments Q100 DSC, and a heating rate of 5° C./minute. The IR spectra were recorded on a Nicolet Avatar 360 FTIR spectrophotometer in the range 650-4000 cm^−1 using a ZnSe—attenuated total reflectance (ATR) accessory. The compounds were solved in a small amount of solvent (MeOH for the diols, CHCl3 for the lipids), and the resulted solutions were left to evaporate to dryness on the surface of the ZnSe crystals of the ATR accessory. The NMR spectra were recorded at ≈303 K with a Varian Inova spectrometer equipped with a 5 mm indirect detection probe, operating at 500 MHz for ^1H-NMR and at 125 MHz for ^13C-NMR. Chemical shifts are reported as δ values, using TMS as internal standard for proton spectra and the solvent resonance for carbon spectra. Assignments were made based on signal intensity, selective decoupling, COSY (^1H-^1H) and HETCOR (^1H-^13C) sequences. Elemental analyses were performed by combustion, using a Perkin Elmer 2400 Series II CHNS analyser.
Dioleoylphosphatidylethanolamine (DOPE), cholesterol (CHOL), N-(2,3-dioleoyloxypropyl)-N,N,N-trimethylammonium chloride (DOTAP) were commercial products. The purity of the lipids was checked by thin layer chromatography and also by differential scanning calorimetry (DSC), which was also used for determining the critical temperature Tc. For the preparation of the liposomes a protocol optimized for this type of compounds was adopted as follows. The cationic lipid (with or without helper lipid) was dissolved in chloroform/methanol (2/1, v/v) to reach a final concentration of 1 mM for the charged species. From this stock solution 50 μL were aliquoted in a 1 mL tube and the solvent was evaporated in a SpeedVac evaporator, under vacuum, for 1 h. The dried lipid film was prepared by removing the traces of organic solvent in a dessicator, over Drierite®, under vacuum, overnight. The film was hydrated with 500 μL sterile phosphate buffer saline (PBS) the tube was purged with sterile N2, and vortexed for 1 minute. The liposomes were generated by sonicating the tube in a water bath sonicator for 5-30 minutes at 62° C. and at 37° C. for DOTAP. After sonication the preparations were allowed to reach room temperature.
Materials and Methods. Melting points for the diols, acetates and ketals were determined on a Boetius heating plate microscope and are uncorrected. For the cationic lipids 21 and 25 the phase transition temperature Tc was determined by differential scanning calorimetry (DSC), using a TA-Instruments Q100 DSC, and a heating rate of 5° C./minute. The IR spectra were recorded on a Nicolet Avatar 360 FTIR spectrophotometer, in the range 650-4000 cm^−1, using a ZnSe—attenuated total reflectance (ATR) accessory. The compounds were solved in a small amount of solvent (MeOH for the diols, CHCl3 for the esters), the resulted solutions being left to evaporate to dryness on the surface of the ZnSe crystals of the ATR accessory. This technique was imposed by the poor results obtained in transmission mode for some of the compounds, due to the lack of crystallization, hygroscopicity and other problems related with working with KBr pellets. The NMR spectra were recorded at ≈303 K with a Varian Gemini 300BB spectrometer operating at 300 MHz for ^1H and at 75 MHz for ^13C. Chemical shifts are reported as δ values, using TMS as internal standard for proton spectra and the solvent resonance for carbon spectra: 77.00 ppm in CDCl3, 39.50 ppm in DMSO-d6, the line from 123.50 ppm in pyridine-d5, 62.80 ppm in nitromethane-d3, 30.10 ppm in dimethylformamide-d7. Assignments were made based on signal intensity, selective decoupling and COSY (^1H-^1H) and HETCOR (^1H-^13C) sequences. Nitrogen elemental analysis was performed by combustion, mixing the samples with small amounts of quartz sand.
For orientation: DSC measures the heat that a sample takes up or gives off during a temperature scan.

On to `CCCCCCCC/C=C\CCCCCCCC(=O)OCC(COC(=O)CCCCCCC/C=C\CCCCCCCC)[n+]1c(C)cc(C)cc1C.[O-][Cl+3]([O-])([O-])[O-]` [Lipid 25AaO, 1-(1,3-Dioleoyloxypropane-2-yl)-2,4,6-trimethylpyridinium perchlorate], for which the “Tc (phase transition temperature)” value was 48 °C.

`CCCCCCCC/C=C\CCCCCCCC(=O)OCC(COC(=O)CCCCCCC/C=C\CCCCCCCC)[n+]1c(C)cc(C)cc1C.F[B-](F)(F)F` [Lipid 25AbO, 1-(1,3-Dioleoyloxypropane-2-yl)-2,4,6-trimethylpyridinium tetrafluoroborate]: the “Tc (phase transition temperature)” value is 43 °C.

Regarding `CCCCCCCCCCCCCCCCCC(=O)Oc1ccc(CC[n+]2c(C)cc(C)cc2C)cc1OC(=O)CCCCCCCCCCCCCCCCC.F[P-](F)(F)(F)(F)F` [Lipid 7ASte, 1-(3,4-distearoyloxyphenylethyl)-2,4,6-trimethylpyridinium hexafluorophosphate], the “Tc (critical temperature), Pure” value was determined as 138.8 °C and the “Tc (critical temperature), With cholesterol (1:1 molar ratio)” value (from here on “Tc … (1:1 molar ratio)”) was determined as 123.9 °C.

For the compound `CCCCCCCCCCCCCCCC(=O)OCC(COC(=O)CCCCCCCCCCCCCCC)[n+]1c(-c2ccccc2)cc(-c2ccccc2)cc1-c1ccccc1.[O-][Cl+3]([O-])([O-])[O-]` [Lipid 25BaP, 1-(1,3-Dipalmitoyloxypropane-2-yl)-2,4,6-triphenylpyridinium perchlorate], the “Tc (phase transition temperature)” value is 125 °C.

Take `CCCCCCCCCCCCCCCC(=O)OCC(C[n+]1c(-c2ccccc2)cc(-c2ccccc2)cc1-c1ccccc1)OC(=O)CCCCCCCCCCCCCCC.[O-][Cl+3]([O-])([O-])[O-]` (stereo not shown) [Lipid 21BaP, 1-(2,3-Dipalmitoyloxypropyl)-2,4,6-triphenylpyridinium perchlorate]: the “Tc (phase transition temperature)” value turned out to be 134 °C.

As to `CCCCCCCCCCCCCCCC(=O)OCC(COC(=O)CCCCCCCCCCCCCCC)[n+]1c(C)cc(C)cc1C.F[P-](F)(F)(F)(F)F` [Lipid 5APal, 1-(1,3-dipamitoyloxypropane-2-yl)-2,4,6-trimethylpyridinium hexafluorophosphate], the “Tc (critical temperature), Pure” value is 75.5 °C and the “Tc … (1:1 molar ratio)” value came out at 61.0 °C.

With `CCCCCCCCCCCC(=O)OCC(COC(=O)CCCCCCCCCCC)[n+]1c(C)cc(C)cc1C.F[P-](F)(F)(F)(F)F` [Lipid 5ALau, 1-(1,3-dilauroyloxypropane-2-yl)-2,4,6-trimethylpyridinium hexafluorophosphate], the “Tc (critical temperature), Pure” value was found to be 58.2 °C and the “Tc … (1:1 molar ratio)” value worked out at 41.9 °C.

On to `CCCCCCCCCCCCCCCC(=O)OCC(C[n+]1c(C)cc(C)cc1C)OC(=O)CCCCCCCCCCCCCCC.F[P-](F)(F)(F)(F)F` (stereo not shown) [Lipid 3APal, 1-(2,3-dipamitoyloxypropyl)-2,4,6-trimethylpyridinium hexafluorophosphate], for which the “Tc (critical temperature), Pure” value was found to be 123.5 °C and the “Tc … (1:1 molar ratio)” value came to 114.0 °C.

Regarding `CCCCCCCCCC(=O)Oc1ccc(CC[n+]2c(C)cc(C)cc2C)cc1OC(=O)CCCCCCCCC.F[P-](F)(F)(F)(F)F` [Lipid 7ACpc, 1-(3,4-didecanoyloxyphenylethyl)-2,4,6-trimethylpyridinium hexafluorophosphate], the “Tc (critical temperature), Pure” value came to 140.0 °C and the “Tc … (1:1 molar ratio)” value worked out at 129.2 °C.

Consider `CCCCCCCCCCCCCCCCCC(=O)OCC(C[n+]1c(C)cc(C)cc1C)OC(=O)CCCCCCCCCCCCCCCCC.F[B-](F)(F)F` (stereo not shown) [Lipid 21AbS, 1-(2,3-Distearoyloxypropyl)-2,4,6-trimethylpyridinium tetrafluoroborate], for which the “Tc (phase transition temperature)” value was 103 °C.

Regarding `CCCCCCCCCCCCCC(=O)Oc1ccc(CC[n+]2c(C)cc(C)cc2C)cc1OC(=O)CCCCCCCCCCCCC.F[P-](F)(F)(F)(F)F` [Lipid 7AMyr, 1-(3,4-dimyristoyloxyphenylethyl)-2,4,6-trimethylpyridinium hexafluorophosphate], the “Tc (critical temperature), Pure” value worked out at 141.2 °C and the “Tc … (1:1 molar ratio)” value came out at 125.8 °C.

Consider `CCCCCCCC/C=C\CCCCCCCC(=O)OCC(C[n+]1c(C)cc(C)cc1C)OC(=O)CCCCCCC/C=C\CCCCCCCC.F[B-](F)(F)F` (stereo not shown) [Lipid 21AbO, 1-(2,3-Dioleoyloxypropyl)-2,4,6-trimethylpyridinium tetrafluoroborate], for which the “Tc (phase transition temperature)” value came out at 52 °C.

Turning to `CCCCCCCC(=O)Oc1ccc(CC[n+]2c(C)cc(C)cc2C)cc1OC(=O)CCCCCCC.F[P-](F)(F)(F)(F)F` [Lipid 7ACpy, 1-(3,4-dioctanoyloxyphenylethyl)-2,4,6-trimethylpyridinium hexafluorophosphate], the “Tc (critical temperature), Pure” value came out at 134.1 °C and the “Tc … (1:1 molar ratio)” value came to 127.3 °C.

Turning to `CCCCCCCCCCCCCCCCCC(=O)OCC(COC(=O)CCCCCCCCCCCCCCCCC)[n+]1c(C)cc(C)cc1C.F[P-](F)(F)(F)(F)F` [Lipid 5ASte, 1-(1,3-distearoyloxypropane-2-yl)-2,4,6-trimethylpyridinium hexafluorophosphate], the “Tc (critical temperature), Pure” value is 79.6 °C and the “Tc … (1:1 molar ratio)” value worked out at 66.1 °C.

Take `CCCCCCCC/C=C\CCCCCCCC(=O)OCC(C[n+]1c(C)cc(C)cc1C)OC(=O)CCCCCCC/C=C\CCCCCCCC.[O-][Cl+3]([O-])([O-])[O-]` (stereo not shown) [Lipid 21AaO, 1-(2,3-Dioleoyloxypropyl)-2,4,6-trimethylpyridinium perchlorate]: the “Tc (phase transition temperature)” value was 57 °C.

Consider `CCCCCCCCCCCCCCCCCC(=O)OCC(COC(=O)CCCCCCCCCCCCCCCCC)[n+]1c(C)cc(C)cc1C.[O-][Cl+3]([O-])([O-])[O-]` [Lipid 25AaS, 1-(1,3-Distearoyloxypropane-2-yl)-2,4,6-trimethylpyridinium perchlorate], for which the “Tc (phase transition temperature)” value came to 70 °C.

On to `CCCCCCCCCCCCCCCC(=O)OCC(C[n+]1c(C)cc(C)cc1C)OC(=O)CCCCCCCCCCCCCCC.F[B-](F)(F)F` (stereo not shown) [Lipid 21AbP, 1-(2,3-Dipamitoyloxypropyl)-2,4,6-trimethylpyridinium tetrafluoroborate], for which the “Tc (phase transition temperature)” value is 100 °C.

For the compound `CCCCCCCC/C=C\CCCCCCCC(=O)Oc1ccc(CC[n+]2c(C)cc(C)cc2C)cc1OC(=O)CCCCCCC/C=C\CCCCCCCC.F[P-](F)(F)(F)(F)F` [Lipid 7AOle, 1-(3,4-dioleoyloxyphenylethyl)-2,4,6-trimethylpyridinium hexafluorophosphate], the “Tc (critical temperature), Pure” value was determined as 106.8 °C and the “Tc … (1:1 molar ratio)” value worked out at 97.3 °C.

As for `CCCCCCCCCCCCCCCCCC(=O)OCC(C[n+]1c(C)cc(C)cc1C)OC(=O)CCCCCCCCCCCCCCCCC.F[P-](F)(F)(F)(F)F` (stereo not shown) [Lipid 3ASte, 1-(2,3-distearoyloxypropyl)-2,4,6-trimethylpyridinium hexafluorophosphate], the “Tc (critical temperature), Pure” value was 122.5 °C and the “Tc … (1:1 molar ratio)” value was 112.7 °C.

Turning to `CCCCCCCCCCCCCCCCCC(=O)OCC(COC(=O)CCCCCCCCCCCCCCCCC)[n+]1c(C)cc(C)cc1C.F[B-](F)(F)F` [Lipid 25AbS, 1-(1,3-Distearoyloxypropane-2yl)-2,4,6-trimethylpyridinium tetrafluoroborate], the “Tc (phase transition temperature)” value was 73 °C.

As for `CCCCCCCCCCCCCCCCCC(=O)OCC(C[n+]1c(C)cc(C)cc1C)OC(=O)CCCCCCCCCCCCCCCCC.[O-][Cl+3]([O-])([O-])[O-]` (stereo not shown) [Lipid 21AaS, 1-(2,3-Distearoyloxypropyl)-2,4,6-trimethylpyridinium perchlorate], the “Tc (phase transition temperature)” value worked out at 110 °C.
